# Measurements reported in patent US7148194B2, “Method to increase fibronectin” (Kimberly-Clark Worldwide, Inc., priority 2002, dated 2006).
# “Also recorded” adds a separate entry of the source. Residues, ends and D or L forms follow the SMILES beside them.
# Columns and labels:
# [1] = system: normal human dermal fibroblasts (NHDF); assay: NHDF migration assay, 48-well chemotaxis chamber; format: cell-based; settings: for induction of NHDF migration: concentrations ranging from 1000 μg/mL to 10 ng/mL (data not shown)
# Description: Normal, human dermal fibroblasts (NHDF) were obtained from Biowhittaker, (Walkersville, Md.) and propagated in T75 flasks in FBM media (500 mL, Biowhittaker) containing insulin, hFGF-b, GA-1000, and fetal bovine serum (10 mL) for up to 12 passages. For the migration assay, NHDF were washed once with 10 mL of Hank's buffered saline solution (HBSS). Three milliliters of trypsin (0.25%) in EDTA were added to the T75 flask for no more than five minutes to remove NHDF from the flask. NHDF in trypsin solution were added to 7 mL of FBM with no supplements added. NHDF were centrifuged for 5 minutes, and the supernatant was removed. NHDF were resuspended in 10 mL of FBM for counting. NHDF were centrifuged for another 5 minutes, and the supernatant was removed. NHDF were resuspended at 1×10^6 cells per mL in FBM without supplements. It was important to use FBM media only in migration assays because the complete media contains fibroblast growth factor and serum, both of which will trigger migration of fibroblasts.
# (§1) Peptides were synthesized and purified by the Microchemical Facility at Emory University or by SigmaGenesis. All peptides were analyzed by mass spectrometry after HPLC to assess purity. Approximately 0.5–2.0 milligrams of peptide were used to make fresh stock solutions (5 mg/mL in PBS) for each migration assay. The peptide stock solutions in PBS were used to make more dilute solutions (1 mg/mL, 100 μg/mL, 10 μg/mL, 1 μg/mL, 100 ng/mL, 10 ng/mL) in FBM (without supplements) for the migration assays.
# Polyvinylpyrrolidone-free polycarbonate membranes with […] pores (Neuroprobe, Inc., Gaithersburg, Md.) were washed with 90% ethanol for 15 minutes and rinsed four times with deionized water. Membranes were then placed into a glass dish containing an aqueous solution of 5 μg/mL gelatin. The glass dish was placed in to a water bath at about 90° C. for one hour. Membranes were removed from the gelatin solution and were allowed to dry for one hour in the 37° C. incubator.
# A 48-well chemotaxis chamber (Neuroprobe, Inc., Gaithersburg, Md.) (see FIG. 20) was used for the migration assays. Twenty-eight μL of each test solution were added to the bottom wells of the chamber in quadruplicate. A gelatin-treated membrane was placed carefully on top of the bottom wells. The gasket and top part of chamber were then placed carefully on top of the membrane. The apparatus was tightened using six thumbscrews. A solution of NHDF containing an estimated cell density (2×10^5 cells per mL) was made by adding 320 μL of the 1×10^6 cells per mL solution to 1.28 mL of FBM (no supplements). Fifty microliters of the 2×10^5 cells per mL NHDF solution were added to the top part of each well in the chamber. The chamber was placed in the incubator at 37° C./5% CO2 for three hours. The chamber was removed, the thumbscrews were removed, and the chamber was turned upside down on a paper towel. […] The membrane was carefully removed. […] The membrane was fixed with methanol and stained using the Diff-Quik Staining Solutions I and II. The nuclei of NHDF are stained purple. The membrane was mounted on a glass slide using cedarwood immersion oil and a cover slip. […] The average number of migrated NHDF in the negative control was subtracted from the experimental (peptide) data and positive control data.
# EpiDerm skin model = assay: viability assay (MTT) in EpiDerm skin model; format: cell-based; settings: peptide at 500 μM and 2 mM, relative to PBS control
# Description: The sample containers were transferred to 6 well plates that contained fresh media. All peptides were dissolved in PBS at a final concentration of 10 mM, and 100 μL each peptide solution was pipetted onto the surface of the Epiderm sample container. Incubation was continued for 12 hours at 37° C., 5% CO2. After the incubation period, the sample containers were washed three times with PBS and the sample containers were transferred to a 24 well plate that contained 300 μL of MTT assay media per well (MTT concentration was 1 mg/mL). The colorimetric assay was allowed to develop for three hours (incubation at 37° C., 5% CO2). Sample containers were then transferred to a 24 well culture plate that contained 2 mL of isopropanol per well. Extraction of the colored precipitate occurred over a period of four hours at room temperature. Absorbance readings were taken at 570 nm and 650 nm for each sample. The percent viability of each sample relative to a PBS control was calculated as: 100×(OD570^sam−OD650^sam)/(OD570^con−OD650^con) (6) Routinely, the peptide sample was assayed in triplicate. Results
# neutrophils = assay: neutrophil migration assay, transwell plate; format: cell-based, human; settings: 10 nM, positive control
# Description: as §1, with “HBSS/HSA)” for “PBS)”, “solutions” for “solutions in PBS”, “ng/mL, and” for “ng/mL,”, “HBSS/HSA” for “FBM (without supplements)”, “the” for “the migration”
# Neutrophils were isolated from human blood (collected in Vacutainer™ tubes containing EDTA) by layering the blood/EDTA mixture (about 20 mL) on top of two layers of Histopaque™ 1119 (bottom layer, 18 mL) and 1077 (top layer, 7 mL) in 50 mL Falcon tubes. The tubes were centrifuged at 1800 rpm for 30 minutes (no brake). Four layers appeared in the tubes after the spin (from top to bottom layers): plasma, 1077, 1119, and red blood cells. The buffy coat between the plasma and 1077 layers contained lymphocytes, monocytes, and some platelets. The plasma layer, the buffy coat, and most of the 1077 layer was removed and discarded. The 1119 layer that contained the neutrophils was removed and was placed into a clean 50 mL tube. Dulbecco's Phosphate Buffered Saline (DPBS) was added to bring the volume to 50 mL. The cells were centrifuged for 15 minutes at 2100 rpm. The cells were resuspended in 10 mL of DPBS, transferred to 15 mL tubes, and centrifuged again for 10 minutes at 2000 rpm. This process was repeated to wash the cells a second time. After the supernatant was removed, the red blood cells were lysed by adding 6 mL of cold sterile water to each 15 mL of supernatant. Cells were mixed in the water for only 30 seconds. Six mL of cold 2% sterile saline was then added. Cells were centrifuged again for 10 minutes at 2000 rpm. The red supernatant (containing hemoglobin from red blood cells) was removed. This process of red blood cell lysis was repeated two more times to remove all of the red blood cells. After most of the red blood cells were removed, neutrophils were resuspended in 10 mL of HBSS/HSA for counting with trypan blue.
# A neutrophil migration assay was performed in duplicate using a 24-well transwell plate (3 μm pore size for membrane). Transwell membranes were pre-moistened with 20–40 μL of HBSS/HSA (0.04–0.4%). Chemotactic solutions (500 μL) were added to the bottom of each well. […] Transwells were then placed into the chemotactic solutions. The plate was placed into the incubator (37° C., 5% CO2) for one hour. Cells that migrated through the membrane were counted using trypan blue.
# In the neutrophil migration experiments, neutrophils that were isolated were approximately 95% viable. […]
Molecule,"NHDF migration, percent of the plasma fibronectin positive control ([1]; 100 μg/mL peptide) [%]","NHDF migration, percent of the plasma fibronectin positive control ([1]; 1000 μg/mL peptide) [%]",total average viability (EpiDerm skin model) [%],induction of NHDF migration [1],other results
CC(C)[C@H](NC(=O)[C@H](CC(=O)O)NC(=O)[C@@H]1CCCN1C(=O)[C@H](CC(N)=O)NC(=O)CNC(=O)[C@H](CS)NC(=O)[C@H](CCCNC(=N)N)NC(=O)[C@@H]1CCCN1)C(=O)N[C@@H](C)C(=O)O [Peptide 9-mer] (H-PRCGNPDVA-OH; N-terminus and C-terminus assumed),16±10,32±2,95.8,,
N=C(N)NCCC[C@H](NC(=O)[C@@H]1CCCN1C(=O)[C@H](Cc1ccccc1)NC(=O)[C@H](Cc1ccccc1)NC(=O)[C@H](CC(N)=O)NC(=O)[C@H](Cc1ccc(O)cc1)NC(=O)[C@@H](N)CC(N)=O)C(=O)N[C@@H](CCCCN)C(=O)N1CCC[C@H]1C(=O)N[C@@H](CCCCN)C(=O)O [Peptide 10-mer] (H-NYNFFPRKPK-OH; N-terminus and C-terminus assumed),11±0,30±2,89.6,,
"IL-8: positive control for neutrophil migration, 10 nM [reference compound]",,,,,Percent Neutrophil Migration exp. 2 (neutrophils; 0.04% HSA): 51%; Percent Neutrophil Migration exp. 1 (neutrophils; 0.4% HSA): 81%
TLKAMRKPRCGNPDVAN (listed as Homo sapiens) [Peptide 17-mer],,,,not chemotactic to NHDF at any concentration; also recorded: did not induce NHDF migration; also recorded: no effect on fibroblast mobility,
TMRKPRCGNPDVAN (listed as Homo sapiens) [Peptide 14-mer],,,,not chemotactic to NHDF at any concentration; also recorded: did not induce NHDF migration; also recorded: no effect on fibroblast mobility,
